The term IC50 denotes the concentration needed to halve the response being measured. For orientation: melting point means the temperature, or range, at which the solid turns liquid.

Where only a bound is given, the exact number is not on record here.

The text below walks through data of patent US8110585B2, “Bicyclic compound and pharmaceutical use thereof” (Takeda Pharmaceutical Company Limited, priority 2007, dated 2012).

For series [1], the target named is T1, human melatonin 1 receptors (human MT1 receptors) (Homo sapiens, UniProt P48039).
T1 construct: expressed in transfected cells; membrane fraction
T1 sequence (P48039 whole entry): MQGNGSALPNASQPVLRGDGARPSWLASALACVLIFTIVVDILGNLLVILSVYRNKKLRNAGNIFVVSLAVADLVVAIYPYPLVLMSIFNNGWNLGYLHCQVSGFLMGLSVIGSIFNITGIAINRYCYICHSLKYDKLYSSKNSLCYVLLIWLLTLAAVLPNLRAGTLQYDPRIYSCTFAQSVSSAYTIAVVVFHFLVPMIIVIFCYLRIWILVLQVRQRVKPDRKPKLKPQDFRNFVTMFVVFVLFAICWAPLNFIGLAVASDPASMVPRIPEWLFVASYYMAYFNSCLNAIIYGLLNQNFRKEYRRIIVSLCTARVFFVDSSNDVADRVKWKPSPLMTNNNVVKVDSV
Description: Melatonin receptor binding inhibitory test, 2-[125I] Iodomelatonin, MT1. The settings on record: membrane fraction of CHO-hMelR7 cells, 25° C. for 2.5 hr, read-out: binding inhibitory activity as IC50 value for MT1.

Series [2] concerns the target T2, human melatonin 2 receptors (human MT2 receptors) (Homo sapiens, UniProt P49286).
T2 construct: expressed in transfected cells; membrane fraction
T2 sequence (P49286 1-362): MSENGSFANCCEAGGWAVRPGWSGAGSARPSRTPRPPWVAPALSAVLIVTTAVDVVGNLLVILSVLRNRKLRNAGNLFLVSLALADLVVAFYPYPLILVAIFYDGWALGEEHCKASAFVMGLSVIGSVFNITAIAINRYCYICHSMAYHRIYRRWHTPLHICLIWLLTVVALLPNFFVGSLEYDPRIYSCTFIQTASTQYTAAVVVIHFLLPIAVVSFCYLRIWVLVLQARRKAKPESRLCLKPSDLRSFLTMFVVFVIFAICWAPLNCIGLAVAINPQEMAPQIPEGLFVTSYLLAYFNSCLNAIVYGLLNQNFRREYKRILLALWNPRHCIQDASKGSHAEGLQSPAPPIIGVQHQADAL
Briefly: Melatonin receptor binding inhibitory test, 2-[125I] Iodomelatonin, MT2. The settings on record: membrane fraction of CHO-hMT2 cells, 25° C. for 2.5 hr, read-out: binding inhibitory activity as IC50 value for MT2.

`CCC(=O)NCC1CC1c1cccc2nc(C)cn12` (stereo not drawn) [Example 53, N-{[2-(2-methylimidazo[1,2-a]pyridin-5-yl)cyclopropyl]methyl}propanamide]: the melting point is 88 to 90 °C. The concentration for half-maximal inhibition (IC50) in series [1] was not above 0.1 µM. The concentration for half-maximal inhibition (IC50) in series [2] was not above 0.1 µM.

Take `CC(=O)NCC1CC1c1cccc2nc(C)nn12` (stereo not drawn) [Example 56, N-{[2-(2-methyl[1,2,4]triazolo[1,5-a]pyridin-5-yl)cyclopropyl]methyl}acetamide]: the melting point was in the range of 124 to 126 °C. Also, the 50% inhibitory concentration (IC50) in series [1] was not above 0.1 µM. The half-inhibitory concentration (IC50) in series [2] was not above 0.1 µM.

The compound `CCC(=O)NCC1CC1c1cccc2nc(C)nn12` (stereo not drawn) [Example 57, N-{[2-(2-methyl[1,2,4]triazolo[1,5-a]pyridin-5-yl)cyclopropyl]methyl}propanamide] displayed a melting point of 118 to 119 °C. In addition, the IC50 in series [1] is not above 0.1 µM. The IC50 in series [2] is not above 0.1 µM.

`CC(=O)NCC1CC1c1cccc2nc(C)sc12` (stereo not drawn) [Example 58, N-{[2-(2-methyl-1,3-benzothiazol-7-yl)cyclopropyl]methyl}acetamide] gave a melting point of 96 to 98 °C. In addition, the IC50 in series [1] was not above 0.1 µM. For the same compound, in series [2], the half-maximal inhibitory concentration (IC50) was not above 0.1 µM.

On to `CCC(=O)NCC1CC1c1cccc2nc(C)sc12` (stereo not drawn) [Example 59, N-{[2-(2-methyl-1,3-benzothiazol-7-yl)cyclopropyl]methyl}propanamide], for which the melting point lay within 59 to 61 °C. For the same compound, in series [1], the half-maximal inhibitory concentration (IC50) was not above 0.1 µM. Besides, the IC50 in series [2] was not above 0.1 µM.

On to `CC(=O)NCC1CC1c1cccc2nnsc12` (stereo not drawn) [Example 60, N-{[2-(1,2,3-benzothiadiazol-7-yl)cyclopropyl]methyl}acetamide], for which the melting point lay within 81 to 82 °C. In addition, the IC50 in series [1] was not above 0.1 µM. For the same compound, the IC50 in series [2] was not above 0.1 µM.

As to `CCC(=O)NCC1CC1c1cccc2nnsc12` (stereo not drawn) [Example 61, N-{[2-(1,2,3-benzothiadiazol-7-yl)cyclopropyl]methyl}propanamide], the melting point lay within 67 to 69 °C. Also, the half-inhibitory concentration (IC50) in series [1] is not above 0.1 µM. For the same compound, the IC50 in series [2] was not above 0.1 µM.

On to `CC(=O)NCC1CC1c1cccc2nscc12` (stereo not drawn) [Example 62, N-{[2-(2,1-benzisothiazol-4-yl)cyclopropyl]methyl}acetamide], for which the melting point is 96 to 97 °C. The IC50 in series [1] was not above 0.1 µM. Moreover, the half-maximal inhibitory concentration (IC50) in series [2] is not above 0.1 µM.

Turning to `CCC(=O)NCC1CC1c1cccc2nscc12` (stereo not drawn) [Example 63, N-{[2-(2,1-benzisothiazol-4-yl)cyclopropyl]methyl}propanamide], the melting point fell in the range of 84 to 86 °C. Besides, the half-maximal inhibitory concentration (IC50) in series [1] was not above 0.1 µM. In addition, the half-maximal inhibitory concentration (IC50) in series [2] is not above 0.1 µM.
